# Test results as given in paper PMC9636434, “Discovery of small molecule agonists of the Relaxin Family Peptide Receptor 2” (Communications Biology, 2022).
# “And” between values parts separate entries of the source, which are not always exact repeats. Equal entries are not always repeated. Where two headings read alike, the source gives them in different places.
# Assays:
# human RXFP1 = biological target: T1, human RXFP1 (Homo sapiens, UniProt Q9HBX9); experiment: HTRF cAMP counter-screen in HEK293T cells expressing human RXFP1; format: cell-based; details: for % Eff (cAMP): human RXFP1, experiments (1)-(3)
# T1 construct: FLAG (N); expressed in transfected cells
# T1 sequence (Q9HBX9 1-757): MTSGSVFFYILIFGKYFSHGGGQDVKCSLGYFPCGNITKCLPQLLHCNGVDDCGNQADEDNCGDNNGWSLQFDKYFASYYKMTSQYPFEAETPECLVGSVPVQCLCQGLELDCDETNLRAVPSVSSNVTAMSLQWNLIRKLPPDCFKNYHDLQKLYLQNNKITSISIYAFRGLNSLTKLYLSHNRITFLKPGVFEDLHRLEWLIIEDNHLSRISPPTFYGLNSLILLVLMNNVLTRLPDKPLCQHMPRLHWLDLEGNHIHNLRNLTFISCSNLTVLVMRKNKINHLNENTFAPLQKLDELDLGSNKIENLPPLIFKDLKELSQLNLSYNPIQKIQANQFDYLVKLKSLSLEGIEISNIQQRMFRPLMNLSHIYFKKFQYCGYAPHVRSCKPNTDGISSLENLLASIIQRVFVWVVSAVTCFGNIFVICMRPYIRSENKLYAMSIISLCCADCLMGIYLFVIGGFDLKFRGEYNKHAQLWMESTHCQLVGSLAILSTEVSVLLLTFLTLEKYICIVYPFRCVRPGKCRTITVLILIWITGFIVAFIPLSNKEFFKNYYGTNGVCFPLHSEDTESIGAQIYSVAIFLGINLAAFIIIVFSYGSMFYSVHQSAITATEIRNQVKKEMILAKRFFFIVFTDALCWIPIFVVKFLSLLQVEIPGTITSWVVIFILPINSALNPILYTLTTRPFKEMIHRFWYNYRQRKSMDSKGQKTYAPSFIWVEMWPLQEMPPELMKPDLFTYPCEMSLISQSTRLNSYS
# Description: The HTRF Gs dynamic cAMP assay kit (CisBio, Bedford, MA) was used to measure intracellular cAMP accumulation in HEK293T cells (ATCC, Manassas, VA)[56]. […] The cell stock was verified mycoplasma free and authenticated by ATCC. Transient transfection was accomplished by treating cells in a 6-well plate with a mixture of 2 μg plasmid and 6 μL Lipofectamine 2000 (Invitrogen, Waltham, MA) per manufacturer’s protocol and incubating overnight. For cAMP measurement in 96-well format, HEK293T cells stably transfected with human RXFP2 (HEK-RXFP2), human RXFP1 (HEK-RXFP1), mouse Rxfp1 (HEK-Rxfp1) or transiently transfected with human RXFP1-RXFP2 chimeric receptors were seeded between 7500 and 30,000 cells per well, depending on cell line responsiveness, in serum-free DMEM medium and incubated overnight at 37 °C, 5% CO2. After 18 h, cells were treated with a titration of compound, 2 μM forskolin, or DMSO vehicle. Control wells were also treated with a titration of INSL3 (Phoenix Pharmaceuticals, Burlingame, CA) or human recombinant relaxin 2 (Peprotech, Cranbury, NJ). For the RXFP2 antagonist experiment, cells were co-treated with 0.28 μM compound or 30 nM INSL3 and a titration of the INSL3 B dimer antagonist[38],[39]. For the INSL3 allosteric modulation experiment, cells were co-treated with 0.025, 0.0025, or 0.00025 μM of compound and a titration of INSL3. Cells were incubated for 1 h at 37 °C, 5% CO2, and then kit cAMP-d2 and anti-cAMP antibody were added per manufacturer protocol. Plates were incubated for 1 h at room temperature and the signal was read on a CLARIOstar plate reader (BMG Labtech, Ortenberg, Germany) at 665 and 620 nm emission wavelengths. […]
# receptors. HTRF cAMP counter-screen of RXFP2 agonists in HEK293T cells expressing a human RXFP1 and b mouse RXFP1. Relaxin 2 was used as positive control for RXFP1 receptor activation. Results are expressed as mean ± SEM of 3
# human PTHR1 = biological target: T2, human PTHR1 (Homo sapiens, UniProt Q03431); experiment: HitHunter cAMP XS+ assay, cAMP Hunter cell line PTHR1; format: cell-based; details: for RLU: replicates (1),(2)
# T2 sequence (Q03431 27-593): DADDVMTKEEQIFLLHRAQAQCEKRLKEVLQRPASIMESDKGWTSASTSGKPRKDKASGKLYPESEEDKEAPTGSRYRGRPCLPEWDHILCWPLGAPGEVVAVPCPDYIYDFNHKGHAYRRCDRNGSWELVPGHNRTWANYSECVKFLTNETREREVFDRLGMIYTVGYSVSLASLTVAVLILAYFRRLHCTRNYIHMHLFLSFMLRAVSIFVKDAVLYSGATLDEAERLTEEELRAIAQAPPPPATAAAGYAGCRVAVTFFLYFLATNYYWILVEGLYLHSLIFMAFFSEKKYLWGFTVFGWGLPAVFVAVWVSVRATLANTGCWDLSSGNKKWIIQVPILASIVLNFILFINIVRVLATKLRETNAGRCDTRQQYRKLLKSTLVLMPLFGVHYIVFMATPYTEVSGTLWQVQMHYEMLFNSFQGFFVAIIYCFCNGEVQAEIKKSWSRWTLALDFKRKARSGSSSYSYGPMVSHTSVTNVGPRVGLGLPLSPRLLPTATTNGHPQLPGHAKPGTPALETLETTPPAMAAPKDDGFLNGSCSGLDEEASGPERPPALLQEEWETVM
# From the text: Results are reported as raw RLU values and represent the
# mean ± SEM of 2 technical replicates.
# CCKAR = CCKAR (Homo sapiens, UniProt P32238); experiment: PRESTO-Tango β-arrestin recruitment, CCKAR; format: cell-based; details: 10 µM compound; basal level of detection 3-fold RLU
# [1] = test system: trabecular bone of lumbar vertebrae; experiment: Micro-CT of trabecular bone in L3 vertebral body after 8-week oral treatment; format: in vivo, mouse; details: 10 mg/kg PO 3 times per week, 8 weeks, individual mice
# [2] = 10 mg/kg PO 3 times per week, 8 weeks
# Sequence of CCKAR (P32238 whole entry): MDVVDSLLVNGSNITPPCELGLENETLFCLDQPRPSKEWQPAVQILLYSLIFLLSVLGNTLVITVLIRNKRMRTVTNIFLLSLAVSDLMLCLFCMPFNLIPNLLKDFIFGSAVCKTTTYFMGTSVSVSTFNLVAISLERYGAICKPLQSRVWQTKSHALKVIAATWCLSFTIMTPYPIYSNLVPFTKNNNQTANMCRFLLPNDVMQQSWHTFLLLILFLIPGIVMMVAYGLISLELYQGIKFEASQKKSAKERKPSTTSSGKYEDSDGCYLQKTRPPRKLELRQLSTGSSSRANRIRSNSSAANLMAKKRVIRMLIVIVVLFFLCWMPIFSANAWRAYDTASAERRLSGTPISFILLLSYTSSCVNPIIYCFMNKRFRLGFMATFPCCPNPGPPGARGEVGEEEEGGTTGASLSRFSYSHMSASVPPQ
smiles,measurement,setting,value
O=C1Nc2ccc(-c3cc(C(F)(F)F)cc(C(F)(F)F)c3)cc2C(=O)N2CCN(C(=O)COc3ccc(OC(F)(F)F)cc3I)C[C@@H]12 [compound 6641],activation of human RXFP1 receptor,human RXFP1; HTRF cAMP,do not activate
same,% Eff (cAMP),human RXFP1; Log [M] -4.60,-1.3757% and -1.734% and -1.01%
same,% Eff (cAMP),human RXFP1; Log [M] -5.60,-1.852% and -1.326% and -2.683%
same,% Eff (cAMP),human RXFP1; Log [M] -6.60,-1.88% and -0.1839% and -0.6843%
same,% Eff (cAMP),human RXFP1; Log [M] -7.60,-1.108% and 0.09011% and -0.3682%
same,cAMP response through PTHR1,human PTHR1; Hit Hunter cAMP assay,does not activate
same,RLU,human PTHR1; Log [M] -4.70,1080 RLU
same,RLU,human PTHR1; Log [M] -5.18,1000 RLU
same,RLU,human PTHR1; Log [M] -5.65,960 RLU
same,RLU,human PTHR1; Log [M] -6.13,1040 RLU
same,RLU,human PTHR1; Log [M] -6.61,920 RLU and 960 RLU
same,RLU,human PTHR1; Log [M] -7.08,1200 RLU and 1040 RLU
same,RLU,human PTHR1; Log [M] -7.56,1000 RLU and 880 RLU
same,RLU,human PTHR1; Log [M] -8.04,1000 RLU and 920 RLU
same,RLU,human PTHR1; Log [M] -8.52,920 RLU and 1000 RLU
same,RLU,human PTHR1; Log [M] -8.99,800 RLU
same,"β-arrestin recruitment, CCKAR (mean ± SEM)",CCKAR,3.42 ± 0.15 fold RLU
same,BV/TV (%),[1],trend toward increased and 21.83% and 22.07% and 25.65% and 21.31% and 23.44% and 26.86% and 22.32% and 23.17% and 21.16% and 25.39% and 23.83% and 22.19% and 23.69% and 23.39% and 21.11%
same,Conn.D,[1],No changes and 105.367 1/mm^3 and 104.207 1/mm^3 and 139.801 1/mm^3 and 114.117 1/mm^3 and 100.266 1/mm^3 and 110.113 1/mm^3 and 116.566 1/mm^3 and 102.739 1/mm^3 and 105.531 1/mm^3 and 114.364 1/mm^3 and 111.763 1/mm^3 and 100.184 1/mm^3 and 109.218 1/mm^3 and 125.466 1/mm^3 and 120.228 1/mm^3
same,Mat.D,[1],No changes and 789.633 VOI-mg HA/ccm and 806.041 VOI-mg HA/ccm and 814.578 VOI-mg HA/ccm and 814.711 VOI-mg HA/ccm and 826.05 VOI-mg HA/ccm and 764.488 VOI-mg HA/ccm and 771.958 VOI-mg HA/ccm and 779.095 VOI-mg HA/ccm and 769.29 VOI-mg HA/ccm and 795.903 VOI-mg HA/ccm and 795.302 VOI-mg HA/ccm and 809.309 VOI-mg HA/ccm and 793.168 VOI-mg HA/ccm and 804.707 VOI-mg HA/ccm and 800.171 VOI-mg HA/ccm
same,Tb.N,[1],significant increase and 4.0038 mm-1 and 4.0307 mm-1 and 4.3607 mm-1 and 4.399 mm-1 and 4.0225 mm-1 and 4.1566 mm-1 and 4.1337 mm-1 and 4.2031 mm-1 and 4.3359 mm-1 and 3.9986 mm-1 and 4.1625 mm-1 and 3.9653 mm-1 and 4.2022 mm-1 and 4.1463 mm-1 and 4.168 mm-1
same,Tb.Sp,[1],decreased and 0.2416 mm and 0.2439 mm and 0.2173 mm and 0.2168 mm and 0.234 mm and 0.2335 mm and 0.2409 mm and 0.2383 mm and 0.2244 mm and 0.2446 mm and 0.2447 mm and 0.2276 mm and 0.235 mm and 0.2349 mm
same,Tb.Th,[1],significant increase and 0.0544 mm and 0.0558 mm and 0.0561 mm and 0.0524 mm and 0.0567 mm and 0.0611 mm and 0.0571 mm and 0.0582 mm and 0.0525 mm and 0.0589 mm and 0.057 mm and 0.056 mm and 0.0578 mm and 0.0547 mm and 0.0543 mm
same,"body or organ (liver, kidney) weight vs vehicle",[2],No changes
same,histological analysis of livers and kidneys,[2],did not show any changes in cell morphology
same,Left Kidney weight,"Left Kidney, after 8-week oral treatment, individual mice",0.4912 and 0.4654 and 0.4705 and 0.5626 and 0.5314 and 0.5304 and 0.5976 and 0.5317 and 0.5347 and 0.5015 and 0.5707 and 0.5055 and 0.4688 and 0.4947 and 0.545
same,Liver weight,"Liver, after 8-week oral treatment, individual mice",4.014 and 3.487 and 3.8235 and 3.754 and 3.582 and 3.355 and 4.71 and 3.617 and 3.875 and 3.519 and 3.904 and 3.698 and 3.86 and 3.544 and 3.928
same,Right Kidney weight,"Right Kidney, after 8-week oral treatment, individual mice",0.5699 and 0.5019 and 0.5734 (2×) and 0.5889 and 0.5665 and 0.5265 and 0.5931 and 0.5579 and 0.5793 and 0.6089 and 0.5717 and 0.4908 and 0.5191 and 0.5352
same,Body weight,"day 18, individual mice",19.85 g and 17.73 g and 17.98 g and 16.95 g and 18.38 g and 18.83 g and 21.28 g and 19.38 g and 20.27 g and 20.03 g and 16.32 g and 20.68 g and 19.45 g and 18.87 g and 17.54 g
same,Body weight,"day 21, individual mice",19.93 g and 18.04 g and 17.94 g and 17.08 g and 17.98 g and 19.29 g and 21.67 g and 19.33 g and 20.02 g and 19.71 g and 16.43 g and 21.48 g and 19.84 g and 19.3 g and 18.07 g
same,Body weight,"day 25, individual mice",20.1 g and 18.01 g and 17.55 g and 16.7 g and 18.33 g and 19.06 g and 21.44 g and 20.16 g and 20.44 g and 20.28 g and 16.93 g and 21.61 g and 19.73 g and 19.34 g and 18.63 g
same,Body weight,"day 28, individual mice",19.97 g and 17.83 g and 17.52 g and 17.01 g and 18.4 g and 18.9 g and 22.31 g and 19.96 g and 21.2 g and 20.35 g and 17.55 g and 21.63 g and 20.55 g and 19.62 g and 18.84 g
same,Body weight,"day 32, individual mice",20.73 g and 18.54 g and 18.23 g and 16.58 g and 19.25 g and 19.78 g and 22.35 g and 20.74 g (2×) and 21.45 g and 17.18 g and 20.72 g and 20.18 g and 19.42 g and 18.61 g
same,Body weight,"day 35, individual mice",20.28 g and 18.14 g and 18.03 g and 17.15 g and 19.17 g and 19.71 g and 22.83 g and 20.57 g and 20.92 g and 19.8 g and 17.11 g and 22.36 g and 20.66 g and 20.25 g and 18.8 g
same,Body weight,"day 39, individual mice",20.17 g and 18.1 g and 17.93 g and 17.63 g and 19.64 g and 20.24 g and 22.43 g and 20.72 g and 21.92 g and 20.95 g
